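48-hour exposure; five concentrations; linearly interpolated endpoints. TGI denotes the concentration required for complete inhibition of growth.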
Legend:
Assay in all cases: NCI tumour cell line growth inhibition, 48 h
786-0 renal = tested on: 786-0 renal
A498 renal = tested on: A498 renal
A549 NSCLC = tested on: A549 NSCLC
ACHN renal = tested on: ACHN renal
BT-549 breast = tested on: BT-549 breast
CAKI-1 renal = tested on: CAKI-1 renal
CCRF-CEM leukemia = tested on: CCRF-CEM leukemia
COLO 205 colon = tested on: COLO 205 colon
DLD-1 colon = tested on: DLD-1 colon
DMS 114 small cell lung = tested on: DMS 114 small cell lung
DMS 273 small cell lung = tested on: DMS 273 small cell lung
DU-145 prostate = tested on: DU-145 prostate
EKVX NSCLC = tested on: EKVX NSCLC
HCC-2998 colon = tested on: HCC-2998 colon
HCT-116 colon = tested on: HCT-116 colon
HCT-15 colon = tested on: HCT-15 colon
HL-60(TB) leukemia = tested on: HL-60(TB) leukemia
HOP-62 NSCLC = tested on: HOP-62 NSCLC
HOP-92 NSCLC = tested on: HOP-92 NSCLC
HS 578T breast = tested on: HS 578T breast
HT29 colon = tested on: HT29 colon
IGROV1 ovarian = tested on: IGROV1 ovarian
K-562 leukemia = tested on: K-562 leukemia
KM12 colon = tested on: KM12 colon
KM20L2 colon = tested on: KM20L2 colon
LOX IMVI melanoma = tested on: LOX IMVI melanoma
LXFL 529 NSCLC = tested on: LXFL 529 NSCLC
M14 melanoma = tested on: M14 melanoma
M19-MEL melanoma = tested on: M19-MEL melanoma
MALME-3M melanoma = tested on: MALME-3M melanoma
MCF7 breast = tested on: MCF7 breast
MDA-MB-231 breast = tested on: MDA-MB-231 breast
MDA-MB-435 = tested on: MDA-MB-435
MDA-N = tested on: MDA-N
MOLT-4 leukemia = tested on: MOLT-4 leukemia
NCI-H226 lung = tested on: NCI-H226 lung
NCI-H23 lung = tested on: NCI-H23 lung
NCI-H460 lung = tested on: NCI-H460 lung
NCI-H522 lung = tested on: NCI-H522 lung
NCI/ADR-RES ovarian = tested on: NCI/ADR-RES ovarian
OVCAR-3 ovarian = tested on: OVCAR-3 ovarian
OVCAR-4 ovarian = tested on: OVCAR-4 ovarian
OVCAR-5 ovarian = tested on: OVCAR-5 ovarian
OVCAR-8 ovarian = tested on: OVCAR-8 ovarian
PC-3 prostate = tested on: PC-3 prostate
RPMI-8226 leukemia = tested on: RPMI-8226 leukemia
RXF 393 renal = tested on: RXF 393 renal
RXF-631 renal = tested on: RXF-631 renal
SF-268 CNS = tested on: SF-268 CNS
SF-295 CNS = tested on: SF-295 CNS
SF-539 CNS = tested on: SF-539 CNS
SK-MEL-2 melanoma = tested on: SK-MEL-2 melanoma
SK-MEL-28 melanoma = tested on: SK-MEL-28 melanoma
SK-MEL-5 melanoma = tested on: SK-MEL-5 melanoma
SK-OV-3 ovarian = tested on: SK-OV-3 ovarian
SN12C renal = tested on: SN12C renal
SNB-19 CNS = tested on: SNB-19 CNS
SNB-75 CNS = tested on: SNB-75 CNS
SNB-78 CNS = tested on: SNB-78 CNS
SR leukemia = tested on: SR leukemia
SW-620 colon = tested on: SW-620 colon
T-47D breast = tested on: T-47D breast
TK-10 renal = tested on: TK-10 renal
U251 CNS = tested on: U251 CNS
UACC-257 melanoma = tested on: UACC-257 melanoma
UACC-62 melanoma = tested on: UACC-62 melanoma
UO-31 renal = tested on: UO-31 renal
HOP-18 NSCLC = tested on: HOP-18 NSCLC
XF 498 CNS = tested on: XF 498 CNS

Compound: COC1=CC(=O)c2c(ccc3ncnc(N)c23)C1=O
- TGI (786-0 renal): 3.35 µM
- TGI (A498 renal): 3.9 µM
- TGI (A549 NSCLC): 8.75 µM
- TGI (ACHN renal): 3.16 µM
- TGI (BT-549 breast): 3.2 µM
- TGI (CAKI-1 renal): 3.27 µM
- TGI (CCRF-CEM leukemia): 1.95 µM
- TGI (COLO 205 colon): 6.77 µM
- TGI (DLD-1 colon): 4.44 µM
- TGI (DMS 114 small cell lung): 3.43 µM
- TGI (DMS 273 small cell lung): 10.7 µM
- TGI (DU-145 prostate): 3.34 µM
- TGI (EKVX NSCLC): 4.03 µM
- TGI (HCC-2998 colon): 15.1 µM
- TGI (HCT-116 colon): 3.33 µM
- TGI (HCT-15 colon): 4.13 µM
- TGI (HL-60(TB) leukemia): 1.49 µM
- TGI (HOP-62 NSCLC): 6.54 µM
- TGI (HOP-92 NSCLC): 4 µM
- TGI (HS 578T breast): 7.52 µM
- TGI (HT29 colon): 4.44 µM
- TGI (IGROV1 ovarian): 3.41 µM
- TGI (K-562 leukemia): 1.58 µM
- TGI (KM12 colon): 11.3 µM
- TGI (KM20L2 colon): 34.7 µM
- TGI (LOX IMVI melanoma): 2.68 µM
- TGI (LXFL 529 NSCLC): 3.2 µM
- TGI (M14 melanoma): 3.38 µM
- TGI (M19-MEL melanoma): 3.14 µM
- TGI (MALME-3M melanoma): 5.43 µM
- TGI (MCF7 breast): 4.12 µM
- TGI (MDA-MB-231 breast): 4.8 µM
- TGI (MDA-MB-435): 0.646 µM
- TGI (MDA-N): 0.889 µM
- TGI (MOLT-4 leukemia): 1.5 µM
- TGI (NCI-H226 lung): 4.6 µM
- TGI (NCI-H23 lung): 3.76 µM
- TGI (NCI-H460 lung): 12.6 µM
- TGI (NCI-H522 lung): 5.62 µM
- TGI (NCI/ADR-RES ovarian): 6.39 µM
- TGI (OVCAR-3 ovarian): 3.03 µM
- TGI (OVCAR-4 ovarian): 1.28 µM
- TGI (OVCAR-5 ovarian): 3.81 µM
- TGI (OVCAR-8 ovarian): 7.59 µM
- TGI (PC-3 prostate): 6.53 µM
- TGI (RPMI-8226 leukemia): 3.62 µM
- TGI (RXF 393 renal): 3.3 µM
- TGI (RXF-631 renal): 16.4 µM
- TGI (SF-268 CNS): 6.72 µM
- TGI (SF-295 CNS): 6.76 µM
- TGI (SF-539 CNS): 3.41 µM
- TGI (SK-MEL-2 melanoma): 7.08 µM
- TGI (SK-MEL-28 melanoma): 4.94 µM
- TGI (SK-MEL-5 melanoma): 3.12 µM
- TGI (SK-OV-3 ovarian): 16.3 µM
- TGI (SN12C renal): 3.42 µM
- TGI (SNB-19 CNS): 5.47 µM
- TGI (SNB-75 CNS): 6.62 µM
- TGI (SNB-78 CNS): 4.89 µM
- TGI (SR leukemia): 0.631 µM
- TGI (SW-620 colon): 4.03 µM
- TGI (T-47D breast): 3.42 µM
- TGI (TK-10 renal): 8.75 µM
- TGI (U251 CNS): 3.39 µM
- TGI (UACC-257 melanoma): 3.69 µM
- TGI (UACC-62 melanoma): 3.42 µM
- TGI (UO-31 renal): 5.09 µM

Compound: CCNCCCCNCCCCNCCCCNCCCCNCC
- TGI (786-0 renal): 98.6 µM
- TGI (A498 renal): > 100 µM
- TGI (A549 NSCLC): > 100 µM
- TGI (ACHN renal): > 100 µM
- TGI (BT-549 breast): > 100 µM
- TGI (CAKI-1 renal): > 73.1 µM
- TGI (CCRF-CEM leukemia): > 100 µM
- TGI (COLO 205 colon): > 100 µM
- TGI (DLD-1 colon): > 100 µM
- TGI (DMS 114 small cell lung): > 100 µM
- TGI (DMS 273 small cell lung): > 100 µM
- TGI (DU-145 prostate): > 100 µM
- TGI (EKVX NSCLC): > 100 µM
- TGI (HCC-2998 colon): > 100 µM
- TGI (HCT-116 colon): > 100 µM
- TGI (HCT-15 colon): > 100 µM
- TGI (HL-60(TB) leukemia): > 100 µM
- TGI (HOP-18 NSCLC): > 100 µM
- TGI (HOP-62 NSCLC): > 100 µM
- TGI (HOP-92 NSCLC): > 100 µM
- TGI (HS 578T breast): 26.3 µM
- TGI (HT29 colon): > 100 µM
- TGI (IGROV1 ovarian): > 100 µM
- TGI (K-562 leukemia): > 100 µM
- TGI (KM12 colon): > 100 µM
- TGI (KM20L2 colon): > 100 µM
- TGI (LOX IMVI melanoma): > 100 µM
- TGI (LXFL 529 NSCLC): > 100 µM
- TGI (M14 melanoma): > 100 µM
- TGI (M19-MEL melanoma): > 100 µM
- TGI (MALME-3M melanoma): 31.5 µM
- TGI (MCF7 breast): > 100 µM
- TGI (MDA-MB-231 breast): > 100 µM
- TGI (MDA-MB-435): 38.6 µM
- TGI (MDA-N): 61.8 µM
- TGI (MOLT-4 leukemia): > 100 µM
- TGI (NCI-H226 lung): > 100 µM
- TGI (NCI-H23 lung): > 100 µM
- TGI (NCI-H460 lung): > 100 µM
- TGI (NCI-H522 lung): > 100 µM
- TGI (NCI/ADR-RES ovarian): > 100 µM
- TGI (OVCAR-3 ovarian): > 100 µM
- TGI (OVCAR-4 ovarian): > 100 µM
- TGI (OVCAR-5 ovarian): > 100 µM
- TGI (OVCAR-8 ovarian): > 100 µM
- TGI (PC-3 prostate): > 100 µM
- TGI (RPMI-8226 leukemia): > 100 µM
- TGI (RXF 393 renal): > 52.6 µM
- TGI (SF-268 CNS): > 77.7 µM
- TGI (SF-295 CNS): > 100 µM
- TGI (SF-539 CNS): > 100 µM
- TGI (SK-MEL-2 melanoma): > 100 µM
- TGI (SK-MEL-28 melanoma): 52.6 µM
- TGI (SK-MEL-5 melanoma): > 100 µM
- TGI (SK-OV-3 ovarian): > 100 µM
- TGI (SN12C renal): > 100 µM
- TGI (SNB-19 CNS): > 100 µM
- TGI (SNB-75 CNS): 78.4 µM
- TGI (SNB-78 CNS): > 100 µM
- TGI (SR leukemia): > 100 µM
- TGI (SW-620 colon): > 100 µM
- TGI (T-47D breast): > 100 µM
- TGI (TK-10 renal): > 56.2 µM
- TGI (U251 CNS): > 100 µM
- TGI (UACC-257 melanoma): 81.3 µM
- TGI (UACC-62 melanoma): 43.8 µM
- TGI (UO-31 renal): > 100 µM
- TGI (XF 498 CNS): > 100 µM

— PubChem BioAssay (NCI)
